This is an account of results in US4618622A, “Sulfonates of hydroxycoumarins” (priority 1982, dated 1986).

pIC50: −log10 of the molar value. Read-outs that look alike come from different tables or passages of the source.

In experiment [1] the target is T1, Monoaminoxidase A (Rattus norvegicus, UniProt P21396).
T1 sequence (P21396 1-526): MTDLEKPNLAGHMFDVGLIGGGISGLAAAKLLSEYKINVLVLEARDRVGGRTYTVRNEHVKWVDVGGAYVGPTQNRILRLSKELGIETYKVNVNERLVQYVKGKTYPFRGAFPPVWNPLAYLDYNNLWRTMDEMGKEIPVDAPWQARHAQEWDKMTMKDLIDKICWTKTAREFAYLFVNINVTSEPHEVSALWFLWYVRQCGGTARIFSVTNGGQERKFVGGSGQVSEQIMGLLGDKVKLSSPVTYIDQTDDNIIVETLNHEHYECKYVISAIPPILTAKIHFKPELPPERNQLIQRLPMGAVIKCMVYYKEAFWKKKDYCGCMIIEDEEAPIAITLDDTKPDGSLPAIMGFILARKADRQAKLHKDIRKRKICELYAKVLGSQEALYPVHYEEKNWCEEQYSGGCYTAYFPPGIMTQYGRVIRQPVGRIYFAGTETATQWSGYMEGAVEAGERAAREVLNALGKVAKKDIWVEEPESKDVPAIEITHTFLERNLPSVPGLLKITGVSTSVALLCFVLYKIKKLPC
As to the kind of experiment: biochemical. Conditions: read-out: Monoaminoxidase inhibition IC50. The method, then: Monoaminoxidase A is determined in dilute rat brain homogenate to which
1. various concentrations of the test substances and
2. ^14 C-tryptamine in a concentration of 0.4 μmol/liter are added. This mixture is incubated at 37° C. for 20 minutes, after which the reaction is terminated by means of aqueous 0.1N HCl, and the products are extracted with toluene scintillator (PPO+POPOP in toluene) and then determined. The blank value is determined in similar mixtures for an incubation time of t=0 minutes.
The mean inhibitory concentration (IC50) is calculated from the inhibitory values determined, in comparison with the control, at the various inhibitor concentrations, by means of a linear regression after logit-log transformation.

Experiment [2] deals with reserpine-induced hypothermia. As to the kind of experiment: Antidepressant action: inhibition of reserpine-induced hypothermia (reserpine test). Format: in vivo, mouse (male, Swiss strain). The following applies: oral administration, 60 minutes before reserpine 2.15 mg/kg s.c.; mouse; temperature 2 hours after; read-out: Antidepressant action (mouse) ED50. The method, then: The test substances are administered orally, 60 minutes before the reserpine.

The target in experiment [3] is T1, Monoaminoxidase A. Conditions: in words, known for the comparative substance; cited from earlier work.
[4] abbreviates: monoaminoxidase A, rat brain homogenate, 14C-tryptamine 0.4 μmol/liter, 37° C., 20 minutes.

Consider `Cc1cc(=O)oc2cc(OS(C)(=O)=O)ccc12` [Example 42, 7-Hydroxy-4-methylcoumarin methanesulfonate], for which the negative logarithm of the IC50 (pIC50) (in general, −log10 of the IC50, conventionally taken in molar units) on Monoaminoxidase A [1] (setting [4]) is 6.89. Moreover, the ED50 (usually the dose at which the effect has come halfway, by size or by number of responders) in experiment [2] was determined as 19.6 mg/kg.
For `Cc1c(C)c2ccc(OS(=O)(=O)CC(C)C)cc2oc1=O` [Example 52, 7-Hydroxy-3,4-dimethylcoumarin 2'-methylpropanesulfonate], the pIC50 on Monoaminoxidase A [1] (setting [4]) was 8.24. Also, the ED50 in experiment [2] was 0.3 mg/kg.
As to `C#CCN(C)Cc1ccccc1` [Pargyline, reference compound], the negative-log IC50 (pIC50) at Monoaminoxidase A [1] is 5.70. Also, the median effective dose (ED50) in experiment [2] came out at 48 mg/kg. For the same compound, the “action mechanism (known)” value on Monoaminoxidase A [3] was “inhibition of monoaminoxidase A”.
